How the values were obtained:
[1] = target: T1, HIV-1 reverse transcriptase, wild type (WT) (Human immunodeficiency virus type 1 (BRU ISOLATE), UniProt P03367); test: Reverse transcriptase (RT) assay, wild type enzyme (RNA-dependent DNA polymerase activity); type: biochemical, Human Immunodeficiency Virus (HIV-1), LAV strain; details: read-out: RT (WT) Assay % inh. (1 μM)
T1 construct: recombinant clone pBRTprtl+ (vector pIBI21, lac promoter) in E. coli JM109
Description: Utilizing the Reverse Transcriptase (RT) Assay described below, compounds can be tested for their ability to inhibit the RNA-dependent DNA polymerase activity of HIV-1 RT. Certain specific compounds described in the Examples which appear below, were so tested.
Among the enzymes for which Human Immunodeficiency Virus (HIV-1) encodes is a reverse transcriptase (1), so-named because it transcribes a DNA copy from an RNA template. This activity can be quantitatively measured in a cell-free enzyme assay, which has been previously described (2), and is based upon the observation that reverse transcriptase is able to use a synthetic template [poly r(C) primed with oligo d(G)] to transcribe a radio-labelled, acid-precipitable DNA strand utilizing ^3 H-dGTP as a substrate. The assay described below utilizes the wild type (WT) enzyme, which is the predominant form of the enzyme observed in patients infected with HIV-1. Utilization of the mutant RT enzyme (Y181C, prepared by site-directed mutagenesis in which the tyrosine residue at codon 181 has been replaced by a cysteine residue) and analogous assay conditions allows compounds to be evaluated for their effectiveness at inhibiting this mutant enzyme. […]

MTT assay (cytotoxicity) = type: cell-based; details: human; H9 cells, five days
Experimental: In order to roughly assess the cytotoxicity of the compounds provided by the invention, several such compounds were tested in the MTT Assay described below. Compounds having a relatively high CC50 are preferred.
The MTT [3-(4,5-dimethylthiazol-2-yl)-2,5 diphenyl tetrazolium bromide) assay is based on cleavage of tetrazolium bromide by metabolically active cells, resulting in a highly quantitative blue color. This assay has been previously described (1) but has been optimized for the purposes of the testing reported herein.
The H9 cell line (2), an established human lymphoma suspension cell line grown in RPMI 1640 supplemented with 10% fetal bovine serum, is used as the target cell line in the assay. Cells (100 μL) are plated in microtest plate wells at a concentration of 10^5 cells per mL in the presence of varying concentrations of inhibitor. The cells are incubated at 37° C. in a humidified CO2 incubator. Five days later, 20 μL of MTT (5 mg/mL in RPMI 1640, sonicated, 0.2 micron filtered, and stored at 4° C.) is added to each well. After 4 hours additional incubation at 37° C., 60 μL of Triton-X is added to each well and thoroughly mixed to aid the solubilization of the crystals. Absolute ethanol (5 μL) is added to each well and the resulting mixture is incubated for 30 minutes at 60° C. and immediately read on a plate reader (Dynatech) at a wavelength of 570 nm. […]

`CCN1c2ncccc2-c2ncc(C)n2-c2ccc(-c3cn[nH]c3)nc21` [Example 1, 8-Ethyl-1-methyl-10-(4-pyrazolyl)imidazo[2',3':6,5]dipyrido[3,2-b:2',3'-e][1,4]diazepine] showed an inhibition at 1 µM [1] of 95% and a CC50 at 120 h (MTT assay (cytotoxicity)) greater than 100 µM.
